Test results reported in ChEMBL document CHEMBL2202996, “Synthesis, evaluation, and radiolabeling of new potent positive allosteric modulators of the metabotropic glutamate receptor 2 as potential tracers for positron emission tomography imaging” (J Med Chem, 2012).

Assays:
[1] = molecular target: T1, Sodium-dependent dopamine transporter (Homo sapiens, UniProt Q01959); assay: Binding affinity to DAT
D(1A) dopamine receptor [2] = molecular target: T2, D(1A) dopamine receptor (Homo sapiens, UniProt P21728); assay: Binding affinity to dopamine D1 receptor
T2 sequence (P21728 whole entry): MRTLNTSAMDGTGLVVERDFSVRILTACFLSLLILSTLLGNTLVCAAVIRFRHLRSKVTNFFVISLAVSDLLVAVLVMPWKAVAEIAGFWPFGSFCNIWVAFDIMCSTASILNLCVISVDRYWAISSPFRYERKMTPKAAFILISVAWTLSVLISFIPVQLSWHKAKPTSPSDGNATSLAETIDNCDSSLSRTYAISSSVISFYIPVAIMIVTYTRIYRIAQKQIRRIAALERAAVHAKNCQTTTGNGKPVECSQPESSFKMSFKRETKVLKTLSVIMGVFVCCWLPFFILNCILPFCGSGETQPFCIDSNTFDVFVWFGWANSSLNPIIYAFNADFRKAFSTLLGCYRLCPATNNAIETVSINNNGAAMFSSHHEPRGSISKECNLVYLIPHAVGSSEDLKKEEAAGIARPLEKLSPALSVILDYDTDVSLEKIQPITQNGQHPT

[3] = molecular target: T1, Sodium-dependent dopamine transporter; assay: Binding affinity to DAT at 10 uM by CEREP assay
D(1A) dopamine receptor [4] = molecular target: T2, D(1A) dopamine receptor; assay: Binding affinity to dopamine D1 receptor at 10 uM by CEREP assay
[5] = Fraction unbound in human plasma; assay type: ADME, cell-free
[6] = Fraction unbound in rat plasma; assay type: ADME, cell-free
Liver microsomes [7] = assay: Drug metabolism in rat liver microsomes assessed as M+O oxidative metabolite; assay type: ADME, Microsome
Liver microsomes [8] = assay: Drug metabolism in human liver microsomes assessed as M+O oxidative metabolite; assay type: ADME, Microsome
Liver microsomes [9] = assay: Drug metabolism in rat liver microsomes assessed as O-methylated compound derivative; assay type: ADME, Microsome
Liver microsomes [10] = assay: Drug metabolism in human liver microsomes assessed as O-methylated compound derivative; assay type: ADME, Microsome
CHO [11] = assay: Selectivity ratio for rat mGluR6 to human mGluR2 expressed in CHO cell membranes; assay type: cell-based
CHO [12] = assay: Selectivity ratio for human mGluR4 to human mGluR2 expressed in CHO cell membranes; assay type: cell-based
HEK293 [13] = assay: Selectivity ratio for human mGluR8 expressed in HEK293 cells to human mGluR2 expressed in CHO cell membranes; assay type: cell-based
HEK293 [14] = assay: Selectivity ratio for human mGluR7 expressed in HEK293 cells to human mGluR2 expressed in CHO cell membranes; assay type: cell-based
HEK293 [15] = assay: Selectivity ratio for human mGluR5 expressed in HEK293 cells to human mGluR2 expressed in CHO cell membranes; assay type: cell-based
HEK293 [16] = assay: Selectivity ratio for human mGluR3 expressed in HEK293 cells to human mGluR2 expressed in CHO cell membranes; assay type: cell-based
HEK293 [17] = assay: Selectivity ratio for human mGluR1 expressed in HEK293 cells to human mGluR2 expressed in CHO cell membranes; assay type: cell-based
[18] = Ratio of drug level in brain to plasma of Wistar rat brain at 0.63 mg/kg, iv; assay type: ADME, organism-based; parameters: dose 0.63 mg/kg, route intravenous; settings: read-out: BPR
[19] = Cmax in Wistar rat brain at 0.63 mg/kg, iv after 5 mins; assay type: ADME, organism-based; parameters: dose 0.63 mg/kg, route intravenous
[20] = Drug level in Wistar rat brain at 0.63 mg/kg, iv after 1 hr; assay type: ADME, organism-based; parameters: dose 0.63 mg/kg, route intravenous; settings: read-out: Drug uptake
[21] = molecular target: T3, Metabotropic glutamate receptor 2 (Homo sapiens, UniProt Q14416); assay: Displacement of [3H]JNJ-40068782 from human mGLuR2 expressed in CHO cell membrane after 60 mins by liquid scintillation counting; assay type: cell membranes
Target sequence in this assay (Q14416 whole entry): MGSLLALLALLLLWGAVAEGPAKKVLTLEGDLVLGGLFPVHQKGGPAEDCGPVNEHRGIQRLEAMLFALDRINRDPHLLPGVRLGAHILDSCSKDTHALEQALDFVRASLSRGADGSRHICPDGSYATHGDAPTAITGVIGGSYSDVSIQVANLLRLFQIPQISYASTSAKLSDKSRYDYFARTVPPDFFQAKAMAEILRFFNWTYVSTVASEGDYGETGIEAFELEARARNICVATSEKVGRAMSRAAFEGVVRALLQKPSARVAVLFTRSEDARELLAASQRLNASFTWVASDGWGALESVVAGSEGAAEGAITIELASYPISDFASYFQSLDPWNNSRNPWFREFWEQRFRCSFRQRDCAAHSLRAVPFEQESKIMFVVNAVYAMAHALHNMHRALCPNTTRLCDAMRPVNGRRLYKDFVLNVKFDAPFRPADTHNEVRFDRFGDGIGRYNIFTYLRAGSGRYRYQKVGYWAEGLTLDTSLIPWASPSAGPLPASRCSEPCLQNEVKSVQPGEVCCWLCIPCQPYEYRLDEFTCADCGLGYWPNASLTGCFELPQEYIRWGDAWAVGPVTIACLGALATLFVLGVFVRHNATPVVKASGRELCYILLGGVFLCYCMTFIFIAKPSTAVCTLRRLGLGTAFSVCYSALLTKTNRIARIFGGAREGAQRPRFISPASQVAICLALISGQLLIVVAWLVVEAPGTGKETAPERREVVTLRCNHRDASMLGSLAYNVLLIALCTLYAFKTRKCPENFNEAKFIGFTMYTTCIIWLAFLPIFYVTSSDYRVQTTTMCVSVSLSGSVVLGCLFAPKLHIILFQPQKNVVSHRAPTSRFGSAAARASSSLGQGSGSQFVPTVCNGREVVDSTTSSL

[22] = molecular target: T3, Metabotropic glutamate receptor 2; assay: Agonist activity at human mGLuR2 expressed in CHO cell membrane assessed as […] after 30 mins by scintillation counting relative to control; assay type: functional, cell membranes
Target sequence in this assay (Q14416 19-872 limits assumed): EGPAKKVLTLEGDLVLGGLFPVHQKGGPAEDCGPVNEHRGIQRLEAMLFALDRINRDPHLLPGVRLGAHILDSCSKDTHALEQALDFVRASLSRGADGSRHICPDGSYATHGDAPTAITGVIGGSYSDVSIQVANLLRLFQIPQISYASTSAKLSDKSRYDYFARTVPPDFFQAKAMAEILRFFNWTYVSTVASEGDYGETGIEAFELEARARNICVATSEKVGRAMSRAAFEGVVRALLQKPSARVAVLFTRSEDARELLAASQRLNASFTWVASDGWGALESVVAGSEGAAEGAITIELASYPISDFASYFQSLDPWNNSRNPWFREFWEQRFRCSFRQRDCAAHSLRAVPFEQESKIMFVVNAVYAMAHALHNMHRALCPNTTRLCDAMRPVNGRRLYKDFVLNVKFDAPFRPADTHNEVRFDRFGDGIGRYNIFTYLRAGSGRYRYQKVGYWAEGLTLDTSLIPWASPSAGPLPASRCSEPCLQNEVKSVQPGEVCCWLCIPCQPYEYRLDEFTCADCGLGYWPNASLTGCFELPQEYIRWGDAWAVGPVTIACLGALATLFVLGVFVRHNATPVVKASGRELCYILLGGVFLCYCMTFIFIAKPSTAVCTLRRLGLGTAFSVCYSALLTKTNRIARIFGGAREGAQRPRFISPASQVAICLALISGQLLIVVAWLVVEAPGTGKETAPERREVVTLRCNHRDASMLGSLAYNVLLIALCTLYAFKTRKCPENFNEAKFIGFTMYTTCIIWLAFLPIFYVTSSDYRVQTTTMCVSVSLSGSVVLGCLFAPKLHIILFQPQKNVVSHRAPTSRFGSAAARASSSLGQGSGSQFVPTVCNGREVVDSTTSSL

[23] = molecular target: T3, Metabotropic glutamate receptor 2; assay: Agonist activity at human mGLuR2 expressed in CHO cell membrane assessed as […] after 30 mins by scintillation counting; assay type: functional, cell membranes; settings: read-out: EC50
Target sequence in this assay (Q14416 whole entry): as the sequence (Q14416 whole entry) above

T1 sequence (Q01959 whole entry): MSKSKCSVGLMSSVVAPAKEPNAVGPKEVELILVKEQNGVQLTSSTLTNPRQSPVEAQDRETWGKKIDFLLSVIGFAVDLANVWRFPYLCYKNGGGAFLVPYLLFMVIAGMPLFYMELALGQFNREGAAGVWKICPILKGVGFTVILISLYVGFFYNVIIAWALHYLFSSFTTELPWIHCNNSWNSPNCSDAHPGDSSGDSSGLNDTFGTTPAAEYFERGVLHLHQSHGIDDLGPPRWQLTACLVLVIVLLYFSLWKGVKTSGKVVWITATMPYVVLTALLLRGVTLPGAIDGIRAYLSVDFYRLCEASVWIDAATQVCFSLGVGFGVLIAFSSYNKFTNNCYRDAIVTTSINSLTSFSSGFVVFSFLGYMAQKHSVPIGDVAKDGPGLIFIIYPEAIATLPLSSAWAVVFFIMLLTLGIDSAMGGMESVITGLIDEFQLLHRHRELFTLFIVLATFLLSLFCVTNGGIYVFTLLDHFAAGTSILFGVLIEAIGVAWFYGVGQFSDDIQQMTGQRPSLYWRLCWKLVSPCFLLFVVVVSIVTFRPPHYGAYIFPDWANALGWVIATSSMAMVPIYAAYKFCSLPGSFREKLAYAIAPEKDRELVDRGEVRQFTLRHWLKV

SMILES: COc1ccc(F)cc1C1CCN(c2ccn3c(CC4CC4)nnc3c2Cl)CC1
- Ki [1]: 5010 nM
- Ki (D(1A) dopamine receptor [2]): ≥ 6200 nM
- Activity [3]: 83%
- Activity (D(1A) dopamine receptor [4]): 71%
- fraction unbound [5]: < 0.01
- fraction unbound [6]: < 0.01
- Drug metabolism (Liver microsomes [7]): Active
- Drug metabolism (Liver microsomes [8]): Active
- Drug metabolism (Liver microsomes [9]): Active
- Drug metabolism (Liver microsomes [10]): Active
- Selectivity ratio (CHO [11]): > 350
- Selectivity ratio (CHO [12]): > 350
- Selectivity ratio (HEK293 [13]): > 350
- Selectivity ratio (HEK293 [14]): > 350
- Selectivity ratio (HEK293 [15]): > 350
- Selectivity ratio (HEK293 [16]): 40
- Selectivity ratio (HEK293 [17]): > 350
- Kp [18]: 1.1
- Cmax [19]: 316 ng/g
- concentration at 1 h [20]: 50 ng/g
- IC50 [21]: 11.2 nM
- Emax [22]: 283%
- EC50 [23]: 8.2 nM
